Earlier results on one molecule are cited in patent US20150065426A1, “Testosterone Booster Transdermal Compositions” (Professional Compounding Centers Of America, priority 2013, published 2015).

Each structure is given as a SMILES string.

The conditions of data set [1]: men with elevated estradiol / hormone disorders.
The conditions of data set [2]: after the use of anastrozole for about 7 days.

Turning to `CC(C)(C#N)c1cc(Cn2cncn2)cc(C(C)(C)C#N)c1` [anastrozole, Anastrozole], the estradiol levels entry in data set [1] is “significant decrease”. Besides, the “increase of natural testosterone levels” value in data set [2] is at most 60%.
